From publication PMC3205148 (International Journal of Nanomedicine, 2011)
≈ marks a conversion by molar mass, not a printed value.

Experiments:
OVCAR-3 = conditions: day 300, OVCAR-3-bearing SCID mice; cited from earlier work
[1] = Solubility in Miglyol 812; format: physicochemical; conditions: Miglyol 812, oil or lipid

SMILES	Survival (OVCAR-3) [%]	solubility [1] [mg/mL]
CCCCCCCCCCCCCCC(Br)C(=O)O[C@@H](C(=O)O[C@H]1C[C@@]2(O)[C@@H](OC(=O)c3ccccc3)[C@@H]3[C@]4(OC(C)=O)CO[C@@H]4C[C@H](O)[C@@]3(C)C(=O)[C@H](O)C(=C1C)C2(C)C)[C@@H](NC(=O)OC(C)(C)C)c1ccccc1 (some centres unmarked) [2′-(2-bromo)-hexadecanoyl DX]	100	–
CC(=O)O[C@@]12CO[C@@H]1C[C@H](O)[C@@]1(C)C(=O)[C@H](O)C3=C(C)[C@@H](OC(=O)[C@H](O)[C@@H](NC(=O)OC(C)(C)C)c4ccccc4)C[C@@](O)([C@@H](OC(=O)c4ccccc4)[C@H]21)C3(C)C [DX, Docetaxel]	–	36.11 ± 0.1 (≈ 44.7 mM)
